Calls of active or inactive are those of the source. The calls are words filed in the database; no cut-off is given here. Some results are limits rather than exact numbers.

Consider nine compounds from ChEMBL document CHEMBL4118030, “Polyketides and Anthranilic Acid Possessing 6-Deoxy-α-l-talopyranose from a Streptomyces Species” (J Nat Prod, 2017).

In experiment [1] the target is T1, Indoleamine 2,3-dioxygenase 1 (Homo sapiens, UniProt P14902). The experiment in a line: Inhibition of ascorbic acid/methylene blue activated recombinant human IDO expressed in Escherichia coli up to 10 uM using L-Tryptophan as substrate after 60 mins by spectrophotometric method relative to control.
Target sequence in this assay (P14902 whole entry, looked up): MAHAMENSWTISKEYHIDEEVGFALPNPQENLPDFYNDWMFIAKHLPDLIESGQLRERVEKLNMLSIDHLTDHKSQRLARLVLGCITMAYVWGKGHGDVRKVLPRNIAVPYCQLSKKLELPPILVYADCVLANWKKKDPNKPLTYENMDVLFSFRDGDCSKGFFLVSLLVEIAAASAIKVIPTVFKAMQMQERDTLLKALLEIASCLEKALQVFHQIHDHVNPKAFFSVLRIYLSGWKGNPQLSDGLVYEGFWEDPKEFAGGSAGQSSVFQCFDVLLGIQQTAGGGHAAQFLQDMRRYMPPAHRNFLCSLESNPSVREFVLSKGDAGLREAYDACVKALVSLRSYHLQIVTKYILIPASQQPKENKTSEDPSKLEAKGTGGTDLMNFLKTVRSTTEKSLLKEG
Experiment [2] deals with HeLa. In words: Induction of autophagosome accumulation in human HeLa cells harboring RFP-GFP-LC3 assessed as increase in LC3-2 level after 24 hrs by immunoblot method. Type of experiment: functional, cell-based. In general terms: A western blot detects proteins with antibodies after separation by electrophoresis.
Experiment [3] relates to HeLa. In words: Induction of autophagosome accumulation in human HeLa cells harboring RFP-GFP-LC3 assessed as GFP-LC3 puncta formation at 30 uM after 24 hrs by DAPI staining based fluorescence microscopic method. Type of experiment: functional, cell-based.
The subject of experiment [4] is HL-60. In words: Antiproliferative activity against human HL60 cells after 48 hrs by EZ-Cytox cell viability assay. As to conditions: HL-60, 48 h. Type of experiment: functional, cell-based.
Experiment [5] concerns SW480. The experiment in a line: Antiproliferative activity against human SW480 cells after 48 hrs by MTT assay. Type of experiment: functional, cell-based. As to conditions: SW480, 48 h. (Tetrazolium assays rely on reduction of a dye to a coloured formazan, in cell work by metabolically active cells.)
In experiment [6] the test system is MDA-MB-231. In words: Antiproliferative activity against human MDA-MB-231 cells after 48 hrs by MTT assay. The conditions noted are these: MDA-MB-231, 48 h. Type of experiment: functional, cell-based.
Experiment [7] has as its system HeLa. The experiment in a line: Induction of autophagosome accumulation in human HeLa cells harboring RFP-GFP-LC3 assessed as increase in p62 level after 24 hrs by immunoblot method. Type of experiment: functional, cell-based.
The subject of experiment [8] is U2OS. In words: Antiproliferative activity against human U2OS cells after 48 hrs by MTT assay. The class given is functional, cell-based.
The test system of experiment [9] is HeLa. In words: Antiproliferative activity against human HeLa cells after 48 hrs by MTT assay. The class given is functional, cell-based.
The target in experiment [10] is T1, Indoleamine 2,3-dioxygenase 1. In words: Inhibition of ascorbic acid/methylene blue activated recombinant human IDO expressed in Escherichia coli using L-Tryptophan as substrate after 60 mins by spectrophotometric method.
Target sequence in this assay (P14902 whole entry): as the sequence (P14902 whole entry, looked up) above

On to `C/C=C(\C)[C@H](O)[C@H](C)/C=C(C)/C=C/C/C(C)=C/Cc1nc(OC)c(OC)c(O[C@@H]2O[C@@H](C)[C@@H](O)[C@@H](O)[C@H]2O)c1C`, for which the inhibition (in general, the percentage by which the read-out fell short of the control) in [1] is below 50%. Further, the Activity result in [2] and in experiment [7] was “Dose-dependent effect” throughout. Also, the outcome in [3] was Active. The IC50 (as a rule, the point on the concentration scale where inhibition reaches its midpoint) was 24.8 µM in [4]; 23 µM in experiment [5]; 35.1 µM in experiment [6]; 29.6 µM in experiment [8]; 27.3 µM in experiment [9].

Regarding `CNc1ccccc1C(=O)O[C@@H]1O[C@@H](C)[C@@H](O)[C@@H](O)[C@H]1O`, the inhibition in [1] was below 50%. Moreover, the IC50 in [4], in [5], in experiment [6], in experiment [8] and in [9] was above 100 µM throughout.

`C/C(=C\[C@H](C)[C@@H](O)[C@@H](C)/C=C/[C@@H](O)C/C=C(\C)C(=O)C[C@H](O)[C@@H](C)/C=C/C=C\C=C/C(=O)Nc1c(Cl)c(O[C@@H]2O[C@@H](C)[C@@H](O)[C@@H](O)[C@H]2O)c2cc(O)c(C)cc2c1O)C(=O)O`: the inhibition in [1] is below 50%. In addition, the IC50 in [4] was 91.4 µM; in [5] it was 94.3 µM; in experiment [6], above 100 µM; in experiment [8] it was above 100 µM; in experiment [9], above 100 µM.

Consider `COc1cccc2c1C(=O)c1c(O)c3c(c(O)c1C2=O)C[C@@](O)(C(=O)CO)C[C@@H]3O[C@H]1C[C@H](N)[C@H](O)[C@H](C)O1` [DOXORUBICIN], for which the IC50 in [4] is 0.532 µM; in [5], 0.406 µM; in experiment [6], 0.369 µM; in experiment [8] it was 0.563 µM; in experiment [9], 0.606 µM.

For `C/C1=C/C=C\C=C\[C@H](C)[C@@H](O)CC(=O)/C(C)=C/C[C@H](O)/C=C/[C@H](C)[C@H](O)[C@@H](C)/C=C(\C)C(=O)c2c(O)c(C)cc3c2C(=O)C(Cl)=C(NC1=O)C3=O` [NAPHTHOMYCIN A], the IC50 stood at 2.1 µM in experiment [4]; 7.6 µM in [5]; 34.6 µM in experiment [6]; 0.44 µM in [10]; 20.5 µM in experiment [8]; 30.2 µM in experiment [9].

`CC(=O)NC1=CC(=O)c2cc(O[C@@H]3O[C@@H](C)[C@@H](O)[C@@H](O)[C@H]3O)c(C)cc2C1=O`: the IC50 is 7.1 µM in experiment [4]; 9.3 µM in experiment [5]; 72.1 µM in experiment [6]; 0.56 µM in [10]; 33.6 µM in experiment [8]; 35 µM in experiment [9].

As for `C/C=C(\C)[C@H](O)[C@H](C)/C=C(C)/C=C/C/C(C)=C/Cc1nc(OC)c(OC)c(O)c1C` [PIERICIDIN A], the inhibition in experiment [1] was below 50%. Also, the Activity result in experiment [2] and in experiment [7] was “Dose-dependent effect” each time. For the same compound, in experiment [3], the outcome was Active. Besides, the IC50 is 82.1 µM in [4]; 82.1 µM in experiment [5]; above 100 µM in experiment [6]; 91.5 µM in experiment [8]; 84.9 µM in [9].

Take `CC1=CC(=O)c2ccccc2C1=O` [MENADIONE]: the IC50 in [10] is 0.37 µM.

As for `C/C(=C\[C@H](C)[C@@H](O)[C@@H](C)/C=C/[C@@H](O)C/C=C(\C)C(=O)C[C@H](O)[C@@H](C)/C=C/C=C\C=C/C(=O)NC1=C(Cl)C(=O)c2cc(O)c(C)cc2C1=O)C(=O)O`, the IC50 is 42.2 µM in [4]; 78.1 µM in [5]; above 100 µM in [6]; above 100 µM in experiment [8]; 71.4 µM in [9].
